Measured values as given in PMC12652692, “Synthesis and In Vitro Anticancer Evaluation of Novel Phosphonium Derivatives of Chrysin” (International Journal of Molecular Sciences, 2025).

Assays:
Test in all cases: NCI60 one-dose screen
Type in all cases: cell-based
[1] = system: SK-OV-3; conditions: Homo sapiens; SK-OV-3, 10 μM; read-out: Growth percent
Protocol: (§1) The screening results are presented in the Supplementary Materials (Table S1), where the cytotoxicity was determined for the 10 µM concentration. […] The negative numbers indicate significant decreases in the cell number. […] Compared to the reference chrysin (2), all phosphonium hybrids (3a–h) had significant antiproliferative activities. […] At the same time, it should be noted that more than 60% average reduction was also obtained in the case of the other examined conjugates (3a–h).
(§2) A detailed description of the NCI screening procedures, including the one-dose and five-dose tests, can be found in the Supplementary Materials, on the website of NCI [39], and in our previous work.
(§3) A detailed description of the NCI screening procedures can also be found on the website of NCI [39], and in our […]
(§4) All candidates were examined at first at a single high dose (10 μM) in the full NCI60 cell panel. The value reported for the one-dose test is growth relative to the no-drug control and relative to the time zero number of cells. This made possible the disclosure of both growth inhibition (numbers between 0 and 100) and lethality (numbers less than 0). For example, a value of 100 means no growth inhibition. A value of 20 would mean 80% growth inhibition. A value of 0 means no net growth over the course of the analysis. A value of −20 would mean 20% lethality. A value of −100 means all cells are dead. […]
(§5) concentration levels. The human tumor cell lines of the cancer screening panel were grown in RPMI 1640 medium containing 5% fetal bovine serum and 2 mM l-glutamine. Characteristically, cells were injected in 96-well microtiter plates in 0.1 mL at plating densities ranging from 5000 to 40,000 cells/well, depending on the doubling time of individual cell lines. After cell inoculation, the microtiter plates were incubated at 37 °C, 5% carbon dioxide, 95% air, and 100% relative humidity for 24 hours before the addition of tested compounds. After 24 hours, 2 plates of each cell line were fixed in situ with Cl3COOH (TCA), to represent a measurement of the cell population for each cell line at the time of drug addition (tz). Tested compounds were solubilized in DMSO at 400-fold the desired final maximum test concentration and stored frozen before application. In the course of the drug addition, an aliquot of frozen concentrate was thawed and diluted to twice the desired final maximum test concentration with a complete medium containing 50 μg mL−1 gentamicin. Additional four, 10-fold or ½ log serial dilutions were produced to furnish a total of five drug concentrations plus control. Aliquots of 0.1 mL of these different drug dilutions were added to the appropriate microtiter wells already containing 0.1 mL of medium, resulting in the required final drug concentrations.
(§6) Following drug addition, the plates were incubated at 37 °C, 5% carbon dioxide, 95% air, and 100% relative humidity for an additional 48 hours. For adherent cells, the test was finished by the addition of cold Cl3COOH. Cells were fixed in situ by the addition of 50 μL of cold 50% (w/v) Cl3COOH, and incubated at 4 °C for 1 hour. The supernatant was discarded, and the plates were washed with H2O (5×) and dried in air. Sulforhodamine B (SRB) solution (0.1 mL) at 0.4% (w/v) in 1% CH3COOH was added to each well, and plates were incubated at RT for 10 min. After staining, the unbound dye was removed by washing five times with 1% CH3COOH, and the plates were dried in the air. The bound stain is afterward solubilized with a 10 mM trizma base, and the absorbance is read on an automated plate reader at λ = 515 nm. Utilizing the seven absorbance measurements [time zero (tz), control growth (c), and test growth in the presence of the drug at the five concentration levels (ti)], the percentage growth was determined at each of the drug concentration levels. Growth inhibition (%) was calculated as:
(§7) [(ti − tz)/(c − tz)] × 100, for concentrations where ti ≥ tz (1) […]

[2] = system: SW-620; conditions: Homo sapiens; SW-620, 10 μM; read-out: Growth percent
Protocol: as §1, §2, §3, §4, §5, §6, §7

[3] = system: 786-0; conditions: Homo sapiens; 786-0, 10 μM; read-out: Growth percent
Protocol: as §1, §2, §3, §4, §5, §6, §7

[4] = system: OVCAR-5; conditions: Homo sapiens; OVCAR-5, 10 μM; read-out: Growth percent
Protocol: as §1, §2, §3, §4, §5, §6, §7

[5] = system: A498; conditions: Homo sapiens; A498, 10 μM; read-out: Growth percent
Protocol: as §1, §2, §3, §4, §5, §6, §7

[6] = system: UO-31; conditions: Homo sapiens; UO-31, 10 μM; read-out: Growth percent
Protocol: as §1, §2, §3, §4, §5, §6, §7

[7] = system: COLO 205; conditions: Homo sapiens; COLO 205, 10 μM; read-out: Growth percent
Protocol: as §1, §2, §3, §4, §5, §6, §7

[8] = system: NCI-H23; conditions: Homo sapiens; NCI-H23, 10 μM; read-out: Growth percent
Protocol: as §1, §2, §3, §4, §5, §6, §7

[9] = system: NCI-H322M; conditions: Homo sapiens, read-out: Growth percent
Protocol: as §1, §2, §3, §4, §5, §6, §7

[10] = system: NCI-H460; conditions: Homo sapiens; NCI-H460, 10 μM; read-out: Growth percent
Protocol: as §1, §2, §3, §4, §5, §6, §7

[11] = system: IGROV1; conditions: Homo sapiens, IGROV-1; IGROV1, 10 μM; read-out: Growth percent
Protocol: as §1, §2, §3, §4, §5, §6, §7

[12] = system: SK-MEL-2; conditions: Homo sapiens; SK-MEL-2, 10 μM; read-out: Growth percent
Protocol: as §1, §2, §3, §4, §5, §6, §7

[13] = system: HT29; conditions: Homo sapiens, HT-29; HT29, 10 μM; read-out: Growth percent
Protocol: as §1, §2, §3, §4, §5, §6, §7

[14] = system: HS 578T; conditions: Homo sapiens, read-out: Growth percent
Protocol: as §1, §2, §3, §4, §5, §6, §7

[15] = system: HCC-2998; conditions: Homo sapiens; HCC-2998, 10 μM; read-out: Growth percent
Protocol: as §1, §2, §3, §4, §5, §6, §7

[16] = system: UACC-257; conditions: Homo sapiens; UACC-257, 10 μM; read-out: Growth percent
Protocol: as §1, §2, §3, §4, §5, §6, §7

[17] = system: MDA-MB-231/ATCC; conditions: Homo sapiens, read-out: Growth percent
Protocol: as §1, §2, §3, §4, §5, §6, §7

[18] = system: SK-MEL-28; conditions: Homo sapiens; SK-MEL-28, 10 μM; read-out: Growth percent
Protocol: as §1, §2, §3, §4, §5, §6, §7

[19] = system: ACHN; conditions: Homo sapiens, read-out: Growth percent
Protocol: as §1, §2, §3, §4, §5, §6, §7

[20] = system: K-562; conditions: Homo sapiens, K562; K-562, 10 μM; read-out: Growth percent
Protocol: as §1, §2, §3, §4, §5, §6, §7

**Q.** Which activity at 10 µM [1] does the source give for `O=c1cc(-c2ccccc2)oc2cc(OCCCC[P+](c3ccccc3)(c3ccccc3)c3ccccc3)cc(O)c12` [3a] here?
**A.** -83.4%

**Q.** And the activity at 10 µM [2]?
**A.** -81.7%

**Q.** What about the activity at 10 µM [3] of the same compound?
**A.** -69.5%

**Q.** And the activity at 10 µM [4]?
**A.** -97.7%

**Q.** What about the activity at 10 µM [5] of the same compound?
**A.** -83.3%

**Q.** And the activity at 10 µM [6]?
**A.** -97.1%

**Q.** What about the activity at 10 µM [7] of the same compound?
**A.** -56.3%

**Q.** What about the activity at 10 µM [8] of the same compound?
**A.** -93%

**Q.** And the activity at 10 µM [9]?
**A.** -100%

**Q.** And the activity at 10 µM [10]?
**A.** -75.8%

**Q.** What about the activity at 10 µM [11] of the same compound?
**A.** -75.7%

**Q.** And the activity at 10 µM [12]?
**A.** -94.1%

**Q.** What about the activity at 10 µM [13] of the same compound?
**A.** -65%

**Q.** What about the activity at 10 µM [14] of the same compound?
**A.** -35.2%

**Q.** What about the activity at 10 µM [15] of the same compound?
**A.** -93.1%

**Q.** And the activity at 10 µM [16]?
**A.** -91%

**Q.** What about the activity at 10 µM [17] of the same compound?
**A.** -32.2%

**Q.** What about the activity at 10 µM [18] of the same compound?
**A.** -98.5%

**Q.** And the activity at 10 µM [19]?
**A.** -100%

**Q.** What about the activity at 10 µM [20] of the same compound?
**A.** -24.1%

**Q.** Which results are given for `Cc1ccc([P+](CCCCOc2cc(O)c3c(=O)cc(-c4ccccc4)oc3c2)(c2ccc(C)cc2)c2ccc(C)cc2)cc1` [3b]?
**A.** activity at 10 µM [1]: -75.3%; activity at 10 µM [2]: -68.5%; activity at 10 µM [3]: -69.8%; activity at 10 µM [4]: -80.3%; activity at 10 µM [5]: -81.5%; activity at 10 µM [6]: -82.5%; activity at 10 µM [7]: -64.5%; activity at 10 µM [8]: -90.9%; activity at 10 µM [9]: -79.5%; activity at 10 µM [10]: -47.8%; activity at 10 µM [11]: -46.9%; activity at 10 µM [12]: -76.9%; activity at 10 µM [13]: -60.7%; activity at 10 µM [14]: -52.2%; activity at 10 µM [15]: -88.7%; activity at 10 µM [16]: -72.2%; activity at 10 µM [17]: -90.7%; activity at 10 µM [18]: -85.3%; activity at 10 µM [19]: -92.8%; activity at 10 µM [20]: -4.21%

**Q.** With `COc1ccc([P+](CCCCOc2cc(O)c3c(=O)cc(-c4ccccc4)oc3c2)(c2ccc(OC)cc2)c2ccc(OC)cc2)cc1` [3c] as the compound, how does the activity at 10 µM [1] read?
**A.** -77.7%

**Q.** And the activity at 10 µM [2]?
**A.** -34.8%

**Q.** And the activity at 10 µM [3]?
**A.** -65.3%

**Q.** What about the activity at 10 µM [4] of the same compound?
**A.** -59.3%

**Q.** And the activity at 10 µM [5]?
**A.** -83%

**Q.** What about the activity at 10 µM [6] of the same compound?
**A.** -89.9%

**Q.** What about the activity at 10 µM [7] of the same compound?
**A.** -68.3%

**Q.** What about the activity at 10 µM [8] of the same compound?
**A.** -77%

**Q.** And the activity at 10 µM [9]?
**A.** -45.1%

**Q.** And the activity at 10 µM [10]?
**A.** 2.18%

**Q.** What about the activity at 10 µM [11] of the same compound?
**A.** -6.99%

**Q.** And the activity at 10 µM [12]?
**A.** -88.6%

**Q.** What about the activity at 10 µM [13] of the same compound?
**A.** -82.8%

**Q.** And the activity at 10 µM [14]?
**A.** -62.7%

**Q.** What about the activity at 10 µM [15] of the same compound?
**A.** -72.9%

**Q.** What about the activity at 10 µM [16] of the same compound?
**A.** -94.7%

**Q.** And the activity at 10 µM [17]?
**A.** -72.1%

**Q.** What about the activity at 10 µM [18] of the same compound?
**A.** -44.5%

**Q.** What about the activity at 10 µM [19] of the same compound?
**A.** -63.5%

**Q.** And the activity at 10 µM [20]?
**A.** -39.8%

**Q.** Which activity at 10 µM [1] does the source give for `O=c1cc(-c2ccccc2)oc2cc(OCCCC[P+](c3ccc(F)cc3)(c3ccc(F)cc3)c3ccc(F)cc3)cc(O)c12` [3d] here?
**A.** -88.2%

**Q.** And the activity at 10 µM [2]?
**A.** -67.5%

**Q.** And the activity at 10 µM [3]?
**A.** -56.5%

**Q.** What about the activity at 10 µM [4] of the same compound?
**A.** -89.9%

**Q.** And the activity at 10 µM [5]?
**A.** -87.6%

**Q.** What about the activity at 10 µM [6] of the same compound?
**A.** -86.9%

**Q.** And the activity at 10 µM [7]?
**A.** -68.4%

**Q.** And the activity at 10 µM [8]?
**A.** -93%

**Q.** What about the activity at 10 µM [9] of the same compound?
**A.** -88.3%

**Q.** What about the activity at 10 µM [10] of the same compound?
**A.** -47.4%

**Q.** And the activity at 10 µM [11]?
**A.** -64%

**Q.** And the activity at 10 µM [12]?
**A.** -77.3%

**Q.** And the activity at 10 µM [13]?
**A.** -69.8%

**Q.** What about the activity at 10 µM [14] of the same compound?
**A.** -54.5%

**Q.** And the activity at 10 µM [15]?
**A.** -89%

**Q.** And the activity at 10 µM [16]?
**A.** -82.1%

**Q.** And the activity at 10 µM [17]?
**A.** -95%

**Q.** And the activity at 10 µM [18]?
**A.** -92%

**Q.** And the activity at 10 µM [19]?
**A.** -85.4%

**Q.** And the activity at 10 µM [20]?
**A.** -17.6%
